Values joined by “and” are separate entries in the source; they are usually repeats but may differ in a detail not shown here. Equal entries are not always repeated.
Legend:
rabbit aortic rings = assay: Assay B: In Vitro Vascular Smooth Muscle Response for AII (antagonist activity, isometric force); assay type: cell-based; conditions: antagonist at 10^-5 M, 5 min before AII challenge; Schild; aorta rings from two rabbits (two values per cell)
Method: Assay B: In Vitro Vascular Smooth Muscle-Response for AII
The compounds of the invention were tested for antagonist activity in rabbit aortic rings. Male New Zealand white rabbits (2-2.5 kg) were sacrificed using an overdose of pentobarbital and exsanguinated via the carotid arteries. The thoracic aorta was removed, cleaned of adherent fat and connective tissue and then cut into 3-mm ring segments. The endothelium was removed from the rings by gently sliding a rolled-up piece of filter paper into the vessel lumen. The rings were then mounted in a water-jacketed tissue bath, maintained at 37°C, between moveable and fixed ends of a stainless steel wire with the moveable end attached to an FT03 Grass transducer coupled to a Model 7D Grass Polygraph for recording isometric force responses. The bath was filled with 20 ml of oxygenated (95% oxygen/5% carbon dioxide) Krebs solution of the following composition (mM): 130 NaCl, 15 NaHC03, 15 KCl, 1.2 NaH2P04, 1.2 MgS04, 2.5 CaC12, and 11.4 glucose. The preparations were equilibrated for one hour before approximately one gram of passive tension was placed on the rings. Angiotensin II concentration-response curves were then recorded (3 X 10^-10 to 1 x 10^-5 M). Each concentration of AII was allowed to elicit its maximal contraction, and then AII was washed out repeatedly for 30 minutes before rechallenging with a higher concentration of AII. Aorta rings were exposed to the test antagonist at 10^-5 M for 5 minutes before challenging with AII. Adjacent segments of the same aorta ring were used for all concentration-response curves in the presence or absence of the test antagonist. The effectiveness of the test compound was expressed in terms of pA2 values and were calculated according to H.O. Schild [Br. J. Pharmacol. Chemother., 2,189-206 (1947)]. The pA2 value is […] of the antagonist which increases the EC50 value for AII by a factor of two. Each test antagonist was evaluated in aorta rings from two rabbits.

pressor response to AII = assay: Assay C: In Vivo Intragastric Pressor Assay Response for AII antagonists; set-up: species or system Sprague-Dawley rats; conditions: Dose: 3 mg/kg (i.g.); for Assay C Duration: AII challenges up to 180 minutes after gavage; for Assay C Inhibition (%): inhibition of pressor response to 30 ng/kg AII bolus, conscious rats
Method: Assay C: In Vivo Intragastric Pressor Assay Response for All Antagonists
Male Sprague-Dawley rats weighing 225-300 grams were anesthetized with methohexital (30 mg/kg, i.p.) and catheters were implanted into the femoral artery and vein. The catheters were tunneled subcutaneously to exit dorsally, posterior to the head and between the scapulae. The catheters were filled with heparin (1000 units/ml of saline). The rats were returned to their cage and allowed regular rat chow and water ad libitum. After full recovery from surgery (3-4 days), rats were placed in Lucite holders and the arterial line was connected to a pressure transducer. Arterial pressure was recorded on a Gould polygraph (mmHg). Angiotensin II was administered as a 30 ng/kg bolus via the venous catheter delivered in a 50 µl volume with a 0.2 ml saline flush. The pressor response in mm Hg was measured by the difference from pre-injection arterial pressure to the maximum pressure achieved. The AII injection was repeated every 10 minutes until three consecutive injections yielded responses within 4 mmHg of each other. These three responses were then averaged and represented the control response to AII. The test compound was suspended in 0.5% methylcellulose in water and was administered by gavage. The volume administered was 2 ml/kg body weight. The standard dose was 3 mg/kg. Angiotensin II bolus injections were given at 30, 45, 60, 75, 120, 150, and 180 minutes after gavage. The pressor response to AII was measured at each time point. The rats were then returned to their cage for future testing. A minimum of 3 days was allowed between tests. Percent inhibition was calculated for each time point following gavage by the following formula: [(Control Response - Response at time point)/Control Response] X 100 [formula] .

SMILES: CCCCc1cn(-c2c(C)cc(C(C)(C)C)cc2C)c(=O)n1Cc1ccc(-c2ccccc2-c2nnn[nH]2)nc1 [Example 6, 1-(2,6-dimethyl-4-tertbutylphenyl)-4-butyl-1,3-dihydro-3-[[6-[2-(1H-tetrazol-5-yl)phenyl]-3-pyridinyl]methyl]-2H-imidazol-2-one]
- Assay B pA2 (rabbit aortic rings): 8.51 and 8.78

SMILES: CCCCc1cn(-c2ccccc2C(C)(C)C)c(=O)n1Cc1ccc(-c2ccccc2-c2nnn[nH]2)nc1 [Example 2, 1-(2-tertbutylphenyl)-4-butyl-1,3-dihydro-3-[[6-[2-(1H-tetrazol-5-yl)phenyl]-3-pyridinyl]methyl]-2H-imidazol-2-one]
- Assay C Duration (pressor response to AII): >180 min
- Assay C Inhibition (%) (pressor response to AII): 40%

SMILES: CCCCc1cn(-c2c(CC)cccc2CC)c(=O)n1Cc1ccc(-c2ccccc2-c2nnn[nH]2)nc1 [Example 7, 1-(2,6-diethylphenyl)-4-butyl-1,3-dihydro-3-[[6-[2-(1H-tetrazol-5-yl)phenyl]-3-pyridinyl]methyl]-2H-imidazol-2-one]
- Assay C Inhibition (%) (pressor response to AII): 20%

SMILES: CCCCc1cn(-c2c(C(C)C)cccc2C(C)C)c(=O)n1Cc1ccc(-c2ccccc2-c2nnn[nH]2)nc1 [Example 8, 1-(2,6-diisopropylphenyl)-4-butyl-1,3-dihydro-3-[[6-[2-(1H-tetrazol-5-yl)phenyl]-3-pyridinyl]methyl]-2H-imidazol-2-one]
- Assay B pA2 (rabbit aortic rings): 7.14 and 7.07

SMILES: CCCCc1cn(-c2c(C)cc(C)cc2C)c(=O)n1Cc1ccc(-c2ccccc2-c2nnn[nH]2)nc1 [Example 5, 1-(2,4,6-trimethylphenyl)-4-butyl-1,3-dihydro-3-[[6-[2-(1H-tetrazol-5-yl)phenyl]-3-pyridinyl]methyl]-2H-imidazol-2-one]
- Assay C Duration (pressor response to AII): >180 min
- Assay C Inhibition (%) (pressor response to AII): 70%
- Assay B pA2 (rabbit aortic rings): 8.59 and 8.89

SMILES: CCCCc1cn(-c2ccccc2CC)c(=O)n1Cc1ccc(-c2ccccc2-c2nnn[nH]2)nc1 [Example 1, 1-(2-ethylphenyl)-4-butyl-1,3-dihydro-3-[[6-[2-(1H-tetrazol-5-yl)phenyl]-3-pyridinyl]methyl]-2H-imidazol-2-one]
- Assay C Duration (pressor response to AII): >180 min
- Assay C Inhibition (%) (pressor response to AII): 80%

SMILES: CCCCc1cn(-c2c(OC)cccc2OC)c(=O)n1Cc1ccc(-c2ccccc2-c2nnn[nH]2)nc1 [Example 3, 1-(2,6-dimethoxyphenyl)-4-butyl-1,3-dihydro-3-[[6-[2-(1H-tetrazol-5-yl)phenyl]-3-pyridinyl]methyl]-2H-imidazol-2-one]
- Assay C Duration (pressor response to AII): >180 min
- Assay C Inhibition (%) (pressor response to AII): 25%

SMILES: CCCCc1cn(-c2c(C)cccc2Cl)c(=O)n1Cc1ccc(-c2ccccc2-c2nnn[nH]2)nc1 [Example 4, 1-(2-chloro-6-methylphenyl)-4-butyl-1,3-dihydro-3-[[6-[2-(1H-tetrazol-5-yl)phenyl]-3-pyridinyl]methyl]-2H-imidazol-2-one]
- Assay C Duration (pressor response to AII): >180 min
- Assay C Inhibition (%) (pressor response to AII): 75%

Source: patent EP0664802B1, “N-ARYLHETEROARYLALKYL 1-PHENYL-IMIDAZOL-2-ONE COMPOUNDS FOR TREATMENT OF CIRCULATORY DISORDERS” (G.D. SEARLE & CO., priority 1992, dated 1994)
